Laboratory results from patent US11492413B2, “Switchable antibody conjugate” (Temple University—Of The Commonwealth System of Higher …, priority 2017, dated 2022).
Read-outs that look alike come from different tables or passages of the source. Non-standard residues stand in square brackets, D forms with d. Residues, ends and D or L forms follow the SMILES beside them. Dolaproine = CO[C@@H]([C@@H]1CCCN1)[C@@H](C)C(=O)O; Dil = CC[C@H](C)[C@H](NC)[C@@H](CC(=O)O)OC; NMeV = CN[C@H](C(=O)O)C(C)C

Tests used:
[1] = tested on: Her2-positive breast cancer cell line SK-BR-3; experiment: In vitro cytotoxicity assay (CellTiter Glo) on SK-BR-3; format: cell-based
Method: SK-BR-3 cell line (ATCC) was cultured and assayed in DMEM (Cellgro) supplemented with 10% (vol/vol) FBS, 100 IU/mL penicillin, and 100 μg/mL streptomycin. Ramos cell line (ATCC) was cultured and assayed in RPMI-1640 media mixed with the same supplements as described above. For cytotoxicity assay, SK-BR-3 cancer cells were plated in flat-bottom 96 well plates at 1000 cells, 90 μL fresh cell media/well, and were incubated overnight at 37° C., 5% CO2. The MMAF compound and protein samples were filtered (0.22 μm, EMD Millipore), serially diluted in PBS buffer as 10× stock solutions, and added in triplicate to cancer cells (10 μL/well). To prevent evaporation, the edges of the plates were filled with 200 μL of bank media. […] The luminescence signals were detected on a Synergy H1 plate reader (BioTek). The viability of the cells treated with PBS buffer was used as a control, the signal of which was normalized as 100%. Ramos cancer cells were plated in flat-bottom 96 well plates at 10000 cells/well, and were directly treated with protein samples and MMAF control compound. The rest of the assay procedure was the same as described above.

[2] = tested on: CD19-positive Burkitt's lymphoma cell line Ramos; experiment: In vitro cytotoxicity assay (CellTiter Glo) on Ramos; format: cell-based; settings: 72 hour incubation; mixtures αGCN4-Fab-MMAF:GCN4 fusion at molar ratio 2:1
Method: SK-BR-3 cell line (ATCC) was cultured and assayed in DMEM (Cellgro) supplemented with 10% (vol/vol) FBS, 100 IU/mL penicillin, and 100 μg/mL streptomycin. Ramos cell line (ATCC) was cultured and assayed in RPMI-1640 media mixed with the same supplements as described above. For cytotoxicity assay, SK-BR-3 cancer cells were plated in flat-bottom 96 well plates at 1000 cells, 90 μL fresh cell media/well, and were incubated overnight at 37° C., 5% CO2. The MMAF compound and protein samples were filtered (0.22 μm, EMD Millipore), serially diluted in PBS buffer as 10× stock solutions, and added in triplicate to cancer cells (10 μL/well). To prevent evaporation, the edges of the plates were filled with 200 μL of bank media. The plates were then incubated at 37° C., 5% CO2 for 72 hours, after which the ATP content of each well was measured by CellTiter Glo (Promega). The luminescence signals were detected on a Synergy H1 plate reader (BioTek). The viability of the cells treated with PBS buffer was used as a control, the signal of which was normalized as 100%. Ramos cancer cells were plated in flat-bottom 96 well plates at 10000 cells/well, and were directly treated with protein samples and MMAF control compound. The rest of the assay procedure was the same as described above.

Structure (SMILES): CC[C@H](C)[C@@H]([C@@H](CC(=O)N1CCC[C@H]1[C@H](OC)[C@@H](C)C(=O)N[C@@H](Cc1ccccc1)C(=O)O)OC)N(C)C(=O)[C@@H](NC(=O)[C@@H](NC)C(C)C)C(C)C [MMAF, monomethyl auristatin F] (H-[NMeV]V[Dil][Dolaproine]F-OH)
- EC50 ([1]; 72 hour incubation, mixtures αGCN4-Fab-MMAF:GCN4 fusion at molar ratio 2:1, read-out: EC50 (nM) on SK-BR-3): 50 ± 39 nM
- EC50 ([1]; range over Ramos and SK-BR-3, 72 hour incubation, read-out: EC50s, medium cytotoxicity of positive control): 50 to 89 nM
- EC50 [2]: 89 ± 37 nM
